In data set [1] the target is T1, Potassium voltage-gated channel subfamily A member 3 (Homo sapiens, UniProt P22001). The data set can be described thus: Inhibition of human Kv1.3 expressed in HEK293 cells assessed as inhibition of tetracyclin induced current at 30 uM at holding potential of -80 mV by patch clamp method relative to control. The data set is classed as cell-based. A general note: Patch clamp records ionic current or voltage across a cell membrane.

The target in data set [2] is T1, Potassium voltage-gated channel subfamily A member 3. The data set can be described thus: Inhibition of human Kv1.3 expressed in HEK293 cells assessed as inhibition of tetracyclin induced current at 1 uM at holding potential of -80 mV by patch clamp method relative to control. Type of data set: cell-based.
Another data set concerns HEK293. Briefly: Cytotoxicity against HEK293 cells assessed as reduction in cell proliferation at 30 uM. Type of data set: toxicity, cell-based. The note with it: human, hek293, 30 µM.
Data set [3] has as its target T1, Potassium voltage-gated channel subfamily A member 3. The data set can be described thus: Inhibition of human Kv1.3 expressed in HEK293 cells assessed as inhibition of tetracyclin induced current at holding potential of -80 mV by patch clamp method. Type of data set: cell-based.

T1 sequence (P22001 whole entry): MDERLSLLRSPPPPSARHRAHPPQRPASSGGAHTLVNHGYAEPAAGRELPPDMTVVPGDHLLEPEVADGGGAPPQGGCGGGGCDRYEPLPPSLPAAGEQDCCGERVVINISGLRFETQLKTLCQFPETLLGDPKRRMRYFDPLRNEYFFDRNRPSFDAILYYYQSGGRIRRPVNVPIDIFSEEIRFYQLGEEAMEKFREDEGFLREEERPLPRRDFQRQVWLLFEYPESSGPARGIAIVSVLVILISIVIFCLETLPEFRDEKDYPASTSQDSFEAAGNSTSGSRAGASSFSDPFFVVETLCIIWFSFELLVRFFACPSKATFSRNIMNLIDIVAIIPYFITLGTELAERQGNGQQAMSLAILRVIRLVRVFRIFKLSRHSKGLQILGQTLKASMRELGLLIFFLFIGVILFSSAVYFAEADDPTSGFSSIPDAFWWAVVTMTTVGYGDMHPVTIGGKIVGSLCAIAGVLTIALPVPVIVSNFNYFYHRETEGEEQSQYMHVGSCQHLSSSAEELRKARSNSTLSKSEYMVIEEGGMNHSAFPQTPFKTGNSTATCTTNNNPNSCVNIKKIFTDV

As for `CC(=O)O[C@]12C[C@H](C)[C@H](OC(=O)c3ccccc3)[C@@H]1/C=C(\C)[C@H](O)CC(=O)C(C)(C)C/C=C(\C)C2=O`, the inhibition (commonly the drop in the measured response relative to a control, in per cent) in data set [1] was 88.7%; in data set [2] it was 4.96%. Further, the Activity entry in the data set on HEK293 is reported as “Non-Toxic”.

As for `CC(=O)O[C@@H]1[C@H](C)/C=C/C(C)(C)C(=O)C[C@@H](OC(C)=O)/C(CO)=C/[C@H]2[C@@H](OC(=O)c3ccccc3)[C@H](C)C[C@]12OC(C)=O`, the inhibition worked out at 97.5% in data set [1] and 5.38% in data set [2]. The Activity entry in the data set with HEK293 is recorded as “Non-Toxic”.

Consider `CC(=O)O[C@@H]1C[C@@H](OC(C)=O)C(C)(C)[C@@H](O)[C@H](O)[C@H](C)[C@H](OC(C)=O)[C@@]2(O)C[C@H](C)[C@H](OC(=O)c3ccccc3)[C@@H]2/C=C/1C`, for which the inhibition was determined as 95.7% in data set [1] and 24.3% in data set [2]. For the same molecule, in the data set with HEK293, the Activity entry is listed as “Non-Toxic”.

In the case of `CC(=O)O[C@]12C[C@@H](C)[C@H](OC(=O)c3ccccc3)[C@@H]1/C=C(\C)[C@H](O)CC(=O)C(C)(C)[C@@H](O)/C=C(\C)C2=O`, the figures for the inhibition in data set [1] and in data set [2] were 90.7% and 5.67%, respectively. Moreover, in the data set with HEK293, the Activity entry was “Non-Toxic”.

Regarding `CC(=O)O[C@@H]1CC(=O)/C(C)=C/[C@H]2[C@@H](OC(=O)c3ccccc3)[C@@H](C)C[C@]2(O)[C@@H](OC(C)=O)[C@@H](C)/C=C/C1(C)C`, the figures for the inhibition in data set [1] and in data set [2] were 89.4% and 4.72%, respectively. Besides, the Activity result in the data set with HEK293 is “Non-Toxic”.

In the case of `Fc1ccc([C@@H]2CCNC[C@H]2COc2ccc3c(c2)OCO3)cc1` [PAROXETINE], the inhibition in data set [1] came out at 48.1%. The 50% inhibitory concentration (IC50) (usually the concentration at which inhibition is half-maximal) in data set [3] is 31.9 µM. In the data set with HEK293, the Activity result was “Non-Toxic”.

Take `CC(=O)O[C@@H]1C[C@@H](OC(C)=O)C(C)(C)[C@H](O)/C=C(\C)[C@H](OC(C)=O)[C@@]2(OC(C)=O)C[C@H](C)[C@H](OC(=O)c3ccccc3)[C@@H]2/C=C/1C`: the figures for the inhibition in data set [1] and in data set [2] were 93.7% and 50.4%, respectively. The IC50 in data set [3] came to 0.9 µM. Further, the Activity result in the data set on HEK293 is “Non-Toxic”.

`CC(=O)O[C@@H]1[C@H](C)/C=C/C(C)(C)C(=O)C[C@@H](OC(=O)c2cccnc2)/C(C)=C/[C@H]2[C@@H](OC(=O)c3ccccc3)[C@H](C)C[C@]12OC(C)=O`: the inhibition in data set [1] turned out to be 95.3%; in data set [2] it was 10.5%. For the same molecule, in the data set with HEK293, the Activity result is “Non-Toxic”.

In the case of `CC(=O)O[C@@H]1[C@@H](C)/C=C/C(C)(C)[C@H](OC(C)=O)C[C@@H](OC(C)=O)/C(C)=C/[C@H]2[C@@H](OC(=O)c3ccccc3)[C@@H](C)C[C@]12OC(C)=O`, the results for the inhibition in data set [1] and in data set [2] were 90% and 8.34%, respectively. For the same molecule, the Activity result in the data set with HEK293 is listed as “Non-Toxic”.

Consider `CC(=O)O[C@@H]1[C@@H](C)/C=C/C(C)(C)C(=O)C[C@@H](OC(C)=O)/C(CO)=C/[C@H]2[C@@H](OC(=O)c3ccccc3)[C@H](C)C[C@]12OC(C)=O`, for which the inhibition in data set [1] stood at 96.9%; in data set [2], 5.94%. Also, the Activity entry in the data set with HEK293 is given as “Non-Toxic”.

Regarding `CC(=O)O[C@@H]1C[C@@H](OC(C)=O)C(C)(C)/C=C/[C@H](C)[C@H](OC(C)=O)[C@@]2(O)C[C@H](C)[C@H](OC(=O)c3ccccc3)[C@@H]2/C=C/1C` [EUPHORNIN], the inhibition in data set [1] was 88.7%; in data set [2], 8.87%. Besides, the Activity entry with HEK293 is “Non-Toxic”.

For the molecule `CC(=O)O[C@@H]1C[C@@H](OC(C)=O)C(C)(C)[C@H](O)[C@H]2O[C@@]3(C[C@H](C)[C@H](OC(=O)c4ccccc4)[C@@H]3/C=C/1C)[C@@H](OC(C)=O)[C@H]2C`, the inhibition in data set [1] stood at 96.2%; in data set [2] it was 21%. In addition, in the data set on HEK293, the Activity entry is listed as “Non-Toxic”.

For `CC(=O)O[C@@H]1C[C@@H](O)/C(C)=C/[C@H]2[C@@H](OC(=O)c3ccccc3)[C@H](C)C[C@]2(OC(C)=O)C(=O)/C(C)=C/[C@H](O)C1(C)C`, the inhibition in data set [1] was 85.6%; in data set [2], 6.06%. The Activity entry in the data set on HEK293 is “Non-Toxic”.

With `CC(=O)O[C@@H]1CC(=O)C(C)(C)/C=C/[C@@H](C)[C@@H](O)[C@@]2(OC(C)=O)C[C@H](C)[C@H](OC(=O)c3ccccc3)[C@@H]2/C=C/1C`, the inhibition in data set [1] stood at 85.4%; in data set [2] it was 24.6%. In the data set with HEK293, the Activity result was “Non-Toxic”.

As for `CC(=O)O[C@@H]1[C@H](C)[C@@H](C=C(C)C)C(=O)C[C@@H](OC(=O)c2cccnc2)/C(C)=C/[C@H]2[C@@H](OC(=O)c3ccccc3)[C@H](C)C[C@]12OC(C)=O`, the figures for the inhibition in data set [1] and in data set [2] were 98.7% and 30.9%, respectively. In data set [3], the concentration for half-maximal inhibition (IC50) came to 6.5 µM. The Activity entry with HEK293 was “Non-Toxic”.

For the molecule `CC(=O)O[C@]12C[C@@H](C)[C@H](OC(=O)c3ccccc3)[C@@H]1/C=C(\C)[C@H](O)CC(=O)C(C)(C)/C=C/[C@@H](C)[C@H]2O`, the inhibition in data set [1] worked out at 93.9%; in data set [2] it was 13.4%. For the same molecule, in the data set on HEK293, the Activity result was “Non-Toxic”.

For `CC(=O)O[C@@H]1[C@H](C)/C=C/C(C)(C)C(=O)C[C@@H](O)/C(C)=C/[C@H]2[C@@H](OC(=O)c3ccccc3)[C@H](C)C[C@]12OC(C)=O`, the inhibition in data set [1] amounted to 94.6%; in data set [2] it was 2.38%. Also, the Activity entry in the data set on HEK293 is reported as “Non-Toxic”.

Turning to `CC(=O)O[C@@H]1C[C@@H](OC(C)=O)C(C)(C)/C=C/[C@H](C)[C@@H](O)[C@@]2(OC(C)=O)C[C@@H](C)[C@H](OC(=O)c3ccccc3)[C@@H]2/C=C/1C`, the inhibition was determined as 97.4% in data set [1] and 21.1% in data set [2]. Moreover, in the data set on HEK293, the Activity entry is on record as “Non-Toxic”.

Turning to `CC(=O)O[C@@H]1C[C@@H](OC(C)=O)C(C)(C)/C=C/[C@H](C)[C@H](OC(C)=O)[C@@]2(O)C[C@H](C)[C@H](OC(=O)c3cccc(O)c3)[C@@H]2/C=C/1C`, the inhibition in data set [1] was 74.4%; in data set [2], 6.16%. The Activity result with HEK293 is “Non-Toxic”.

In the case of `CC(=O)O[C@@H]1C[C@@H](O)/C(C)=C/[C@H]2[C@@H](OC(=O)c3ccccc3)[C@@H](C)C[C@]2(OC(C)=O)C(=O)/C(C)=C/[C@H](O)C1(C)C`, the inhibition was found to be 84.4% in data set [1] and 7.36% in data set [2]. Further, the Activity entry with HEK293 is recorded as “Non-Toxic”.

With `CC(=O)O[C@@H]1C[C@@H](OC(C)=O)C(C)(C)[C@@H](O)/C=C(\C)C(=O)[C@@]2(OC(C)=O)C[C@H](C)[C@H](OC(=O)c3ccccc3)[C@@H]2/C=C/1C`, the results for the inhibition in data set [1] and in data set [2] were 98.6% and 57%, respectively. For the same molecule, the IC50 in data set [3] was found to be 0.9 µM. In the data set on HEK293, the Activity result was “Non-Toxic”.

For the origin of these results see ChEMBL document CHEMBL5120778, “Jatrophane Diterpenoids with Kv1.3 Ion Channel Inhibitory Effects from Euphorbia helioscopia” (J Nat Prod, 2022).
